In general, ΔTm refers to the change in melting temperature against a reference sample.

In test [1] the target is Cyclin-dependent kinase 6 (Homo sapiens) (UniProt Q00534).
Test [2] has as its target Calcium/calmodulin-dependent protein kinase type 1D (Homo sapiens) (UniProt Q8IU85).
Test [3] concerns the target Mitogen-activated protein kinase 3 (Homo sapiens, UniProt P27361).
The target of test [4] is cAMP-dependent protein kinase catalytic subunit alpha (Homo sapiens) (UniProt P17612).
For test [5], the target named is Death-associated protein kinase 3 (Homo sapiens) (UniProt O43293).
Test [6] addresses T1, Serine/threonine-protein kinase Nek2 (Homo sapiens) (UniProt P51955).
T1 sequence (whole entry): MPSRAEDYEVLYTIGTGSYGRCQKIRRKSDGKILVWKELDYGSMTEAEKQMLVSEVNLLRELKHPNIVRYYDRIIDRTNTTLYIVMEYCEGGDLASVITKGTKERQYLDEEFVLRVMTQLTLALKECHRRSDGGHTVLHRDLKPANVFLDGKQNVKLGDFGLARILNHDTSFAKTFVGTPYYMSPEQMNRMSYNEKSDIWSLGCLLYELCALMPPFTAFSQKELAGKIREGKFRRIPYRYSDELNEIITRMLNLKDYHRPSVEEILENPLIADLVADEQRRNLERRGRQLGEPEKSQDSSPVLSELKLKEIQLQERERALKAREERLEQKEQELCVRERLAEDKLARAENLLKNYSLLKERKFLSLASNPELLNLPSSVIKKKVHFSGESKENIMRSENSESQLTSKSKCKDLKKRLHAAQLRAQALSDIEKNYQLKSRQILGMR

In test [7] the target is Dual specificity protein kinase CLK1 (Homo sapiens) (UniProt P49759).
For test [8], the target named is Serine/threonine-protein kinase VRK2 (Homo sapiens) (UniProt Q86Y07).
The target of test [9] is T2, 3-phosphoinositide-dependent protein kinase 1 (Homo sapiens) (UniProt O15530).
T2 sequence (whole entry): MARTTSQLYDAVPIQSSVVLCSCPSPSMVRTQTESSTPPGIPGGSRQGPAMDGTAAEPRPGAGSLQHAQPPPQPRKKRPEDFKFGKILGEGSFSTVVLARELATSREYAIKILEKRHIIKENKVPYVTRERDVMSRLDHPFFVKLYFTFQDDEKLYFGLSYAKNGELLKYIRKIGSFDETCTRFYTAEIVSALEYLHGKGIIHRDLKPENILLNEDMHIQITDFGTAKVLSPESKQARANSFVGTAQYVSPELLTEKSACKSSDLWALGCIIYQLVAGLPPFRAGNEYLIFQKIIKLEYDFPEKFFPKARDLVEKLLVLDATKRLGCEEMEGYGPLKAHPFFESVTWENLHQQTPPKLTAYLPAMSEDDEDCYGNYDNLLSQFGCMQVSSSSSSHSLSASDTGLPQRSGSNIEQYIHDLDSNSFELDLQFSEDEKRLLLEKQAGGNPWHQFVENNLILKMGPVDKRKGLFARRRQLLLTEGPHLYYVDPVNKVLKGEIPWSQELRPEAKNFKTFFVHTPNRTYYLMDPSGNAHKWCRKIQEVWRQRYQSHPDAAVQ

Test [10] deals with Serine/threonine-protein kinase RIO2 (Homo sapiens) (UniProt Q9BVS4).
Test [11] addresses Serine/threonine-protein kinase Nek6 (Homo sapiens) (UniProt Q9HC98).
Test [12] deals with T3, Serine/threonine-protein kinase 4 (Homo sapiens) (UniProt Q13043).
T3 sequence (whole entry): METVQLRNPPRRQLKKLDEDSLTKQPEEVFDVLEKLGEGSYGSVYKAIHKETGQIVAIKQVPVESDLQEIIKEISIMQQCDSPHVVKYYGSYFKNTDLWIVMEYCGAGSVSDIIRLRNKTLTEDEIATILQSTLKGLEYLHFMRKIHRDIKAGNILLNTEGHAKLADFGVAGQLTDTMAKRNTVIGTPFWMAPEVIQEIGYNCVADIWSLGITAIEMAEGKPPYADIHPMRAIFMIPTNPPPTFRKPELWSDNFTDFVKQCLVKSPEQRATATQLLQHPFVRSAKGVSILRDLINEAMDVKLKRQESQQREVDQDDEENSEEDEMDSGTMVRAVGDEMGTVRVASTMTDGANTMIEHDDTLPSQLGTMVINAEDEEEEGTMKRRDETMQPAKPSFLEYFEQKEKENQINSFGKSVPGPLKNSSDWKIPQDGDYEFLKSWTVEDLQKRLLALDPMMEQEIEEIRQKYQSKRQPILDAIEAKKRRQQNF

The target of test [13] is Serine/threonine-protein kinase 16 (Homo sapiens) (UniProt O75716).
The target of test [14] is Calcium/calmodulin-dependent protein kinase type 1G (Homo sapiens) (UniProt Q96NX5).
For test [15], the target named is T4, Lymphokine-activated killer T-cell-originated protein kinase (Homo sapiens) (UniProt Q96KB5).
T4 sequence (whole entry): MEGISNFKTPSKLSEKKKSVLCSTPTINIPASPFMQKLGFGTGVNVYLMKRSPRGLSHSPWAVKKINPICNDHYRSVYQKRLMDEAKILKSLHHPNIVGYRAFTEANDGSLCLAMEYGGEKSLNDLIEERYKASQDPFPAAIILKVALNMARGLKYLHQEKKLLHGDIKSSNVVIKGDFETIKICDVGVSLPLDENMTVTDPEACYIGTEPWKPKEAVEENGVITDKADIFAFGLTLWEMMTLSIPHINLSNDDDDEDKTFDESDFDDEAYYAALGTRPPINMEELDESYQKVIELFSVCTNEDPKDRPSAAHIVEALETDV

The target of test [16] is Serine/threonine-protein kinase 25 (Homo sapiens) (UniProt O00506).
Test [17] concerns the target Dual specificity mitogen-activated protein kinase kinase 2 (Homo sapiens, UniProt P36507).
The target of test [18] is Serine/threonine-protein kinase OSR1 (Homo sapiens) (UniProt O95747).
The target in test [19] is Serine/threonine-protein kinase 38 (Homo sapiens) (UniProt Q15208).
For test [20], the target named is STE20-like serine/threonine-protein kinase (Homo sapiens) (UniProt Q9H2G2).
For test [21], the target named is Ribosomal protein S6 kinase alpha-3 (Homo sapiens) (UniProt P51812).
Ribosomal protein S6 kinase alpha-3 (Homo sapiens), sequence (P51812 whole entry): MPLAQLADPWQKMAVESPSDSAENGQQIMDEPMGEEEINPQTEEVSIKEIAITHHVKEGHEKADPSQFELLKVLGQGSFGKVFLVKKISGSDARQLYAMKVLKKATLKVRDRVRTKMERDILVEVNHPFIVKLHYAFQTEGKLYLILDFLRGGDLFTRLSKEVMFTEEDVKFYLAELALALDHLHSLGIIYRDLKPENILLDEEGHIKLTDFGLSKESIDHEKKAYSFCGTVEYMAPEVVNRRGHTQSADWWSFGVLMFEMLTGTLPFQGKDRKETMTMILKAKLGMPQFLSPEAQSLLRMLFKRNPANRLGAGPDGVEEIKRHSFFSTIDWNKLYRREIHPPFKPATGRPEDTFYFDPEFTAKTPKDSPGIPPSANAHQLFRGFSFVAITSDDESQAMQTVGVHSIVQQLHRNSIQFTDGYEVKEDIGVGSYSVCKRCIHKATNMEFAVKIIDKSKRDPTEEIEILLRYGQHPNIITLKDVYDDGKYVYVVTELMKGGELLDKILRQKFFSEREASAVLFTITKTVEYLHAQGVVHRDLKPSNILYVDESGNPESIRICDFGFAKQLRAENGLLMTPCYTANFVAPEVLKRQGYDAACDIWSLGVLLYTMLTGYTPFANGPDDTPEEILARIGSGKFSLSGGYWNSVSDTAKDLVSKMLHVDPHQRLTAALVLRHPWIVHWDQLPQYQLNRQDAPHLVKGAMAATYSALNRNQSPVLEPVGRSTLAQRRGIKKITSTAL

STE20-like serine/threonine-protein kinase (Homo sapiens), sequence (Q9H2G2 whole entry, looked up): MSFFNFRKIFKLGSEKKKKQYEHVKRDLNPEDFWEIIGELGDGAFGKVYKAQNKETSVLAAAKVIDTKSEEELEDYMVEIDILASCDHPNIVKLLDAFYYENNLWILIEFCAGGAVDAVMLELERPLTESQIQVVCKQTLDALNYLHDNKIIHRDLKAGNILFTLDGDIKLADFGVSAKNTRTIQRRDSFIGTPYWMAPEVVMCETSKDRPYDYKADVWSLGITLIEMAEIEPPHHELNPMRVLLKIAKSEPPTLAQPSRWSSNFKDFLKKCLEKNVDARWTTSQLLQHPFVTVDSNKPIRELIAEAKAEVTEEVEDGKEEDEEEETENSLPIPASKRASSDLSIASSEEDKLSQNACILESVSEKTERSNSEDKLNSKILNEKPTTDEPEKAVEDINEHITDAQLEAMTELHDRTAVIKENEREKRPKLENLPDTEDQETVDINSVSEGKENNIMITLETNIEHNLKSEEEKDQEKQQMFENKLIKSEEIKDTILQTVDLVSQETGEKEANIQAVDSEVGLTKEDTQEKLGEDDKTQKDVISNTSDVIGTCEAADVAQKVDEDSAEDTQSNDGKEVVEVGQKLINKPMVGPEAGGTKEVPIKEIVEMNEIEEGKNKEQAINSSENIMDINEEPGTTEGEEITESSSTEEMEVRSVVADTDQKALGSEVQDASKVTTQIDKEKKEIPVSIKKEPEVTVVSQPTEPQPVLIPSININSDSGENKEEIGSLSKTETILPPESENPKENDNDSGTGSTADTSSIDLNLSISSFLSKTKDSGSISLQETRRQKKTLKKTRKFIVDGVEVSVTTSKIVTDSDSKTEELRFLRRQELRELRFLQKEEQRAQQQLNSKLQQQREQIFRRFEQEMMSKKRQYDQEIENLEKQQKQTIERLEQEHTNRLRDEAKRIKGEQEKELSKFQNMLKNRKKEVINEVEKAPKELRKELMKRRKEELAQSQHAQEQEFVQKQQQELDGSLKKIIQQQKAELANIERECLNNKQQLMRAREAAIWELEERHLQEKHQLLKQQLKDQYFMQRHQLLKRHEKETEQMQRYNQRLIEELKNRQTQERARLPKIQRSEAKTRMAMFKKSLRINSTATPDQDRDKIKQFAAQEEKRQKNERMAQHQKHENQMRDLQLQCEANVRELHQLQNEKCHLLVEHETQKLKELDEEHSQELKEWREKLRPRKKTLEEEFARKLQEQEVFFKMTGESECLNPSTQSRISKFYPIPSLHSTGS
Dual specificity mitogen-activated protein kinase kinase 2, sequence (P36507 whole entry): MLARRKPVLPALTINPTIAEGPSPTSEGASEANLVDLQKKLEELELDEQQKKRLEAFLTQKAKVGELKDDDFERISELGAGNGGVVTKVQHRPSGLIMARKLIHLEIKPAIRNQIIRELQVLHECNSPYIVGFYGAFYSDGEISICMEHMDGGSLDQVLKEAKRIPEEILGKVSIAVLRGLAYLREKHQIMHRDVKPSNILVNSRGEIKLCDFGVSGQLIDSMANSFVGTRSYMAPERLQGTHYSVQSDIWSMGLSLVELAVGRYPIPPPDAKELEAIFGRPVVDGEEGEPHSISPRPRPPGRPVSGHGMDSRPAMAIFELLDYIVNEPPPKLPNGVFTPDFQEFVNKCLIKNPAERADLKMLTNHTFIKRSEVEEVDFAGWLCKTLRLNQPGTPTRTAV
Serine/threonine-protein kinase 38 (Homo sapiens), sequence (Q15208 2-465 limits assumed): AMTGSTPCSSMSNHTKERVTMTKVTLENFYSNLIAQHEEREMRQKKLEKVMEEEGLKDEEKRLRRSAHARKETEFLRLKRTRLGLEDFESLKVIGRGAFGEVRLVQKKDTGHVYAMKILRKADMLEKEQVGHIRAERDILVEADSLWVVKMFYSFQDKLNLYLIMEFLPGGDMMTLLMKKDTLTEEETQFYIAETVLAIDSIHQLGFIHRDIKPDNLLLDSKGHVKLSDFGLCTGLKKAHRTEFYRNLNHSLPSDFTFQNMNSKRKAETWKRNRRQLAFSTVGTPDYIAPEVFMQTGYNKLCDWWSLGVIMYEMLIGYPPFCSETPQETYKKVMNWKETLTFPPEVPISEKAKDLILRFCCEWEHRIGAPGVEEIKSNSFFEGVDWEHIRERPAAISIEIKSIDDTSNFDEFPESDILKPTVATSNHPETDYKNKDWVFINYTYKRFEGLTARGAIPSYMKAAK
Serine/threonine-protein kinase Nek6 (Homo sapiens), sequence (Q9HC98 whole entry): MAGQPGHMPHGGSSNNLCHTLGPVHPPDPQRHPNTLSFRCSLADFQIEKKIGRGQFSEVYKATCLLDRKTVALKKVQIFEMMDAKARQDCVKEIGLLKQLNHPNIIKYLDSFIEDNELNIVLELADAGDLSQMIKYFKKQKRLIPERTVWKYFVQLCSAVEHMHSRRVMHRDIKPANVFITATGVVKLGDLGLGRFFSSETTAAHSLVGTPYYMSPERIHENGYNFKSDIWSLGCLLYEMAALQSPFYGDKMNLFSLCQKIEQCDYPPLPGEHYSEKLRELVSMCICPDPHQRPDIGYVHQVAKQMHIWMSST
Serine/threonine-protein kinase OSR1 (Homo sapiens), sequence (O95747 2-527 limits assumed): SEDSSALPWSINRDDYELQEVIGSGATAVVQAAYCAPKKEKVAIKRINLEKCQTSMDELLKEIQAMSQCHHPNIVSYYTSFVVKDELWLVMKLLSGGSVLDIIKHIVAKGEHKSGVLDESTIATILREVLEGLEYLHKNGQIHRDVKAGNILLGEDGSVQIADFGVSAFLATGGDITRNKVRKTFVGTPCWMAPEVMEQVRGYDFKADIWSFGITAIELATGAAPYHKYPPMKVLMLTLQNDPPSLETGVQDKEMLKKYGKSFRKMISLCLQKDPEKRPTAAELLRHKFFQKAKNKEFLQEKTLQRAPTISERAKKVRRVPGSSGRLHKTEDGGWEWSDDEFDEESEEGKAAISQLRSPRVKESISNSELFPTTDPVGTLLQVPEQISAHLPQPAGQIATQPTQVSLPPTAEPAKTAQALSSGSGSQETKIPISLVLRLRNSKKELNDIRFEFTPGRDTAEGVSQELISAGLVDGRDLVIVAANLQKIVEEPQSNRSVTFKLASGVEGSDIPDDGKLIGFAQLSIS
Serine/threonine-protein kinase RIO2 (Homo sapiens), sequence (Q9BVS4 whole entry, looked up): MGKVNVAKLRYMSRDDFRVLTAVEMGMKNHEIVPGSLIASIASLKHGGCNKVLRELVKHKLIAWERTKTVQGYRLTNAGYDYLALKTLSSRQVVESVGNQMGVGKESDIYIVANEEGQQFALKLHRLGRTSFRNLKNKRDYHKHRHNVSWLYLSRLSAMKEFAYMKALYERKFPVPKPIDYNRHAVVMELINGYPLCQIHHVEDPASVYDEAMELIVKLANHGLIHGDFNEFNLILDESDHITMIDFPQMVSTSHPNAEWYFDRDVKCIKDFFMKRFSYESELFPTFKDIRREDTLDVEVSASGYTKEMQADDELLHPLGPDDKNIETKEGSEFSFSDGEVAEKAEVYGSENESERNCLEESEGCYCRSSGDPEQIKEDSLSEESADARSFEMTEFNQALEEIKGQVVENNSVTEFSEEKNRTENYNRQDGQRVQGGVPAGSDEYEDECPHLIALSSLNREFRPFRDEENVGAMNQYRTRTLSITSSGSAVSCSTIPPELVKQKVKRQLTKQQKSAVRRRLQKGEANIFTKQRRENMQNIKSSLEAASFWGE
Serine/threonine-protein kinase 25 (Homo sapiens), sequence (O00506 whole entry, looked up): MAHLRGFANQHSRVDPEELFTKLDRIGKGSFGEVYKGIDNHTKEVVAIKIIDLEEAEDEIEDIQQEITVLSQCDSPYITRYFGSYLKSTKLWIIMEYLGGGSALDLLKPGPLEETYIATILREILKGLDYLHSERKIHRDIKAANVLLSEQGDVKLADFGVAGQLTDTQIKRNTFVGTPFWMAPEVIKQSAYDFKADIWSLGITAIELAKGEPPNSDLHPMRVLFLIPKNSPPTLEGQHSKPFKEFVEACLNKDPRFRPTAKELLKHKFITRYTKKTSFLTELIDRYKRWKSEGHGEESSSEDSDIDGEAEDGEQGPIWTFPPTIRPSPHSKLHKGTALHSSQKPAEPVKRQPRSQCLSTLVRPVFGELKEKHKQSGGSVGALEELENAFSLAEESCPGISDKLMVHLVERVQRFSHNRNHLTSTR
Cyclin-dependent kinase 6 (Homo sapiens), sequence (Q00534 whole entry): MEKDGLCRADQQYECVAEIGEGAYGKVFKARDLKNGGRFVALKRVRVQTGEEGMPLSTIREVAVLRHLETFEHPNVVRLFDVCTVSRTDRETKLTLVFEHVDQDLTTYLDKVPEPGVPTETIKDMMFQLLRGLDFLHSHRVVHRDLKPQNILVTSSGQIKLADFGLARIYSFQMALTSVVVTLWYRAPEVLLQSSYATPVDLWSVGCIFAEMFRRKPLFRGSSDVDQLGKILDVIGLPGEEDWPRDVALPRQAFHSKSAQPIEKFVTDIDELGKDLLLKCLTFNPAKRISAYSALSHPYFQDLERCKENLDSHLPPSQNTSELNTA

Take `Nc1n[nH]c2nc3ccccc3nc12` [QUINOXALINE1]: the ΔTm in test [1] turned out to be 0.6 °C; in [2], 0.2 °C; in test [3], 0.3 °C; in [4], 0.6 °C; in [5], 1 °C; in test [6] it was 1.2 °C. The ΔTm is 1.6 °C in test [7]; 0.7 °C in test [8]; 0.5 °C in test [9]; 0.4 °C in [10]; -0.3 °C in [11]; 0.8 °C in test [12]. Further, the ΔTm in test [13] turned out to be 1.1 °C; in test [14] it was 0.2 °C; in [15], 0.5 °C; in test [16] it was 1.3 °C; in [17], 0.1 °C; in test [18], 0.7 °C. Also, the shift in melting temperature (ΔTm) turned out to be 0.4 °C in test [19], 2 °C in test [20] and 0.4 °C in [21].
As for `O=c1c2ccccc2[nH]c(=S)n1CCN1CCC(=C(c2ccc(F)cc2)c2ccc(F)cc2)CC1` [DIACYLGLYCEROL KINASE INHIBITOR II], the shift in melting temperature (ΔTm) in test [1] is -0.4 °C; in [2], 0.8 °C; in test [3], 0.2 °C; in test [4], 0.8 °C; in test [5] it was 1.6 °C; in test [6], 1.5 °C. In addition, the ΔTm in [7] is 0.3 °C; in test [8], -0.2 °C; in [9], 0.6 °C; in test [10], 3.5 °C; in [11], 0.1 °C; in [12], 2 °C. The ΔTm in test [13] turned out to be 0.3 °C; in test [14], 0.1 °C; in test [15] it was 0.1 °C; in test [16], 1.5 °C; in [17], 0.3 °C; in [18], 2.4 °C. Moreover, the ΔTm was determined as 0.2 °C in test [19], 2.3 °C in [20] and 1.2 °C in test [21].
In the case of `Cc1cc(C=C2C(=O)C=CC2=O)cc(C)c1O`, the ΔTm in test [1] is -3.4 °C; in test [2] it was -1 °C; in [3], 0.6 °C; in [4] it was 0.5 °C; in test [5], 0.6 °C; in test [6] it was 0.8 °C. Further, the thermal shift (ΔTm) was -0.4 °C in [7]; 0.2 °C in test [8]; -0.4 °C in test [9]; 0.7 °C in test [10]; -0.4 °C in test [11]; 0.8 °C in [12]. For the same compound, the ΔTm in test [13] is 3.2 °C; in [14] it was -0.4 °C; in test [15], 0.2 °C; in test [16] it was 0.4 °C; in test [17], -2 °C; in test [18], 0.1 °C. The ΔTm was found to be 0.2 °C in test [19], 0.7 °C in [20] and 1.8 °C in [21].
Regarding `O=C1NC(=O)c2c1c1c3ccccc3n3c1c1c2c2ccccc2n1C1CCC3O1`, the thermal shift (ΔTm) was -0.3 °C in test [1]; 1.6 °C in [2]; -0.2 °C in test [3]; 0.3 °C in test [4]; -0.5 °C in [5]; 0.3 °C in test [6]. Besides, the ΔTm in test [7] was 3.3 °C; in test [8] it was 0.1 °C; in test [9], -0.1 °C; in test [10], -0.2 °C; in [11], -0.3 °C; in test [12] it was 4.7 °C. Also, the shift in melting temperature (ΔTm) in test [13] is 1.7 °C; in test [14] it was -0.2 °C; in [15] it was -0.3 °C; in test [16] it was 2.1 °C; in [17], -0.2 °C; in test [18] it was 0.7 °C. Besides, the ΔTm was 0 °C in test [19], 0.1 °C in test [20] and 0 °C in [21].
In the case of `NC1=N/C(=C2/CCNC(=O)c3[nH]ccc32)C(=O)N1` [DEBROMOHYMENIALDISINE], the shift in melting temperature (ΔTm) in [1] came to 0.6 °C; in test [2] it was 0 °C; in test [3], 0.6 °C; in test [4], 0 °C; in [5], 5.2 °C; in [6], 1.1 °C. Besides, the thermal shift (ΔTm) in [7] is 6 °C; in test [8] it was 0.7 °C; in test [9] it was 0 °C; in test [10], -0.3 °C; in [11] it was -0.5 °C; in test [12], 2.6 °C. Moreover, the ΔTm was 0.4 °C in test [13]; 0.2 °C in test [14]; -0.4 °C in [15]; 1.7 °C in [16]; 0.4 °C in test [17]; 0.4 °C in [18]. The ΔTm in [19] came to 0.7 °C; in test [20], 0.6 °C; in [21], 2.6 °C.
With `O=C1C(Cl)=C(N2C(=O)CCC2=O)C(=O)c2ccccc21`, the ΔTm in test [1] is 1.6 °C; in test [2], -9.6 °C; in test [3], 1 °C; in [4], -0.2 °C; in test [5], -7.6 °C; in [6], 2.5 °C. For the same compound, the ΔTm was -1.1 °C in test [7]; -0.3 °C in test [8]; -1.9 °C in test [9]; -1.5 °C in [10]; -0.3 °C in [11]; -0.8 °C in [12]. Besides, the ΔTm in test [13] was -0.1 °C; in test [14], -1.9 °C; in test [15], -4.4 °C; in [16], -0.5 °C; in test [17] it was -2.4 °C; in test [18], -1.4 °C. In addition, the ΔTm in [19] is -1.4 °C; in [20], -0.6 °C; in test [21], -0.8 °C.

The record behind these values is ChEMBL document CHEMBL1145498, “A systematic interaction map of validated kinase inhibitors with Ser/Thr kinases” (Proc Natl Acad Sci U S A, 2007).
